pIC50: −log10 of the molar value.
Tests used:
[1] = system: recombinant aldose reductase; conditions: compounds from X. strumarium; cited from earlier work
[2] = system: rat lens aldose reductase; conditions: compounds from X. strumarium; cited from earlier work
[3] = molecular target: T1, protein tyrosine phosphatase 1β (PTP1β) (Homo sapiens, UniProt P18031); assay: PTP1β inhibitory activity assay (colorimetric kit, IR5 phosphopeptide substrate); format: biochemical; conditions: - is no activity; for inhibition at 10 µg/mL: 10 μg/mL; for pIC50: isolated compounds
T1 sequence (P18031 1-322 limits assumed): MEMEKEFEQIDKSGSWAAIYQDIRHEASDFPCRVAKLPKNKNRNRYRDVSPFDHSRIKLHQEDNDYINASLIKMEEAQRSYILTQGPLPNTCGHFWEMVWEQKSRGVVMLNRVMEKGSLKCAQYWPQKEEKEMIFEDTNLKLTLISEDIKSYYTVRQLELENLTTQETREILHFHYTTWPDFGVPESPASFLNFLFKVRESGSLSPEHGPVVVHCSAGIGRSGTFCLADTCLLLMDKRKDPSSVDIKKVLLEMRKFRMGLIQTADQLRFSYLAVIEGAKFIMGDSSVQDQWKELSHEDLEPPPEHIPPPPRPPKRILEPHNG
Experimental: PTP1β tyrosine phosphatase drug discovery kit is a colorimetric, non-radioactive assay designed to measure the phosphatase activity of purified PTP1β. […] Following incubation at 37 °C for 30 min, the reaction was terminated with the BIOMOL RED^TM reagent. The amount of […] produced was estimated by measuring the absorbance at 620 nm. The non-enzymatic hydrolysis of the IR5 substrate was corrected by measuring the increase in absorbance at 620 nm obtained in the absence of PTP1β enzyme.

[4] = system: advanced glycation end products (AGEs); assay: AGEs inhibitory activity, bovine serum albumin-methylglyoxal assay (fluorescence); format: biochemical; conditions: 100 μg/mL
Experimental: The modified procedure of Lee et al. was followed. Bovine serum albumin (10 mg/mL) was incubated with 5 mM methylglyoxal in sodium phosphate buffer (100 mM; pH 7.4). […] All of the reagents and samples were […] by filtration through 0.2 μm membrane filters and the mixture was incubated at 37 °C for 7 days. The fluorescence intensity was measured at an excitation wavelength of 330 nm and an emission wavelength of 410 nm with a LS50B fluorescence spectrometer Perkin-Elmer Ltd., (Buckinghamshire, FLS, UK). Aminoguanidine was also tested as a known inhibitor.

[5] = system: α-glucosidase from Saccharomyces sp.; assay: α-glucosidase inhibitory activity assay (pNPG substrate, absorbance 405 nm); format: biochemical; conditions: 50 μg/mL; - is no activity
Text: ^1H- and ^13C-NMR spectra and correlation NMR spectra such as COSY, HMBC, HMQC, and DEPT were obtained from a Bruker Avance DPX 400 (or 600) spectrometer (Berlin, Germany). These were obtained at operating frequencies of 400 MHz (^1H) and 100 (or 150) MHz (^13C) with CD3OD, (CD3)2SO, (CD3)2CO, or D2O and TMS was used as an internal standard; chemical shifts were reported in δ values. The α-glucosidase from Saccharomyces sp. (SSG) was purchased from Wako Pure Chemical Industries Ltd (Tokyo, Japan). […] All other chemicals and reagents used were of analytical grade.
The α-glucosidase inhibitory activity of the extracts and fractions was determined using a modified procedure reported method with a slight modification. The α-glucosidase activity was measured using the substrate p-nitrophenyl-α-D-glucopyranoside (pNPG), which is hydrolyzed by α-glucosidase to release the product p-nitrophenol, a colorant that can be monitored at 405 nm. The initial concentration of the enzyme solution was 0.62 unit/mL in 0.1 M phosphate buffer (pH 6.9) and the initial concentration of the substrate solution was 2 mM in the same phosphate buffer. The enzyme solution was mixed with water and the samples or controls in a clear 96-well microplate (flat bottom) and the reaction was initiated by addition of the substrate to the solution. The plates were incubated at 37 °C for 5 min and the reaction was terminated by the addition of 0.1 M Na2CO3. […] Background absorbance was determined using a non-enzyme control microplate containing the buffer and was subtracted from the absorbance of the samples and controls.

PTP1β = system: PTP1β; set-up: method as in ref 16 (Hwang et al.); conditions: compounds isolated from Zea mays L.; ref 16 (Hwang et al.); read-out: PTP1β inhibitory activity IC50; cited from earlier work
α-glucosidase = molecular target: α-glucosidase; set-up: method as in ref 15 (Chen et al.); conditions: compounds isolated from aerial parts of Gynura divaricate; ref 15 (Chen et al.); read-out: inhibitory effects against α-glucosidase; cited from earlier work

| Compound | recombinant aldose reductase inhibitory activity [1] | rat lens aldose reductase inhibitory activity [2] | inhibition at 10 µg/mL [3] | pIC50 [3] | Inhibition (%) AGEs [4] | Inhibition (%) α-glucosidase [5] | pIC50 (PTP1β) | pIC50 (α-glucosidase) |
| --- | --- | --- | --- | --- | --- | --- | --- | --- |
| O=C(/C=C/c1ccc(O)c(O)c1)O[C@@H]1C[C@](OC(=O)/C=C/c2ccc(O)c(O)c2)(C(=O)O)C[C@@H](OC(=O)/C=C/c2ccc(O)c(O)c2)[C@H]1O [compound 13, 1,3,5-tri-O-caffeoylquinic acid] | strong | strong | 39.2% | < 4.83 | 40.22% | 22.05% |  |  |
| COc1cc(-c2oc3cc(O)cc(O)c3c(=O)c2O[C@@H]2O[C@H](CO)[C@@H](O)[C@H](O)[C@H]2O)ccc1O [3′-methoxyhirsutrin] |  |  |  |  |  |  | 4.19 |  |
| methyl 4,5-di-O-CQA |  |  |  |  |  |  |  | 4.88 |
| O=C(O)C1OC(Oc2c(-c3ccc(O)c(O)c3)oc3cc(O)cc(O)c3c2=O)C(O)C(O)C1O (stereo not drawn) [compound 9, quercetin-3-O-glucuronide] |  |  | 10.7% | < 4.68 | 23.96% | 15.40% |  |  |
| OC[C@H]1O[C@H](OC[C@H]2O[C@H](O[C@]3(CO)O[C@H](CO)[C@@H](O)[C@@H]3O)[C@H](O)[C@@H](O)[C@@H]2O)[C@H](O)[C@@H](O)[C@H]1O [compound 14, raffinose] |  |  | < 0% | < 4.70 | 14.99% | 5.82% |  |  |
| COc1c(O)cc2oc(-c3ccc(O)c(O)c3)c(OC3OC(C(=O)O)C(O)C(O)C3O)c(=O)c2c1O (stereo not drawn) [compound 8, patuletin-3-glucuronide] |  |  | < 0% | < 4.71 | 6.11% | 6.11% |  |  |
| O=C(CCO)c1ccc(O)cc1 [compound 2, 3-hydroxy-1-(4-hydroxyphenyl) propan-1-one] |  |  | 5.88% | < 4.22 | 8.50% | 8.60% |  |  |
| O=C(/C=C/c1ccc(O)c(O)c1)O[C@@H]1C[C@](O)(C(=O)O)C[C@@H](O)[C@H]1O [compound 5, chlorogenic acid] |  |  |  |  | 7.47% | 6.60% |  |  |
| O=C(/C=C/c1ccc(O)c(O)c1)O[C@@H]1C[C@](OC(=O)/C=C/c2ccc(O)c(O)c2)(C(=O)O)C[C@@H](O)[C@H]1O [compound 11, 1,5-di-O-caffeoylquinic acid] | strong | strong | 10.6% | < 4.71 | 25.04% | 46.20% |  |  |
| O=C(/C=C/c1ccc(O)c(O)c1)O[C@@H]1[C@H](O)C[C@@](O)(C(=O)O)C[C@H]1OC(=O)/C=C/c1ccc(O)c(O)c1 [4,5-di-O-CQA] |  |  |  |  |  |  |  | 3.88 |
